This is an account of results in ChEMBL document CHEMBL1201862, “PubChem BioAssay data set” (2004).

Active and inactive are the calls of the source.

Experiment [1] concerns the target T1, ORF 73 (Human herpesvirus 8, UniProt O40947).
T1 sequence (O40947 whole entry): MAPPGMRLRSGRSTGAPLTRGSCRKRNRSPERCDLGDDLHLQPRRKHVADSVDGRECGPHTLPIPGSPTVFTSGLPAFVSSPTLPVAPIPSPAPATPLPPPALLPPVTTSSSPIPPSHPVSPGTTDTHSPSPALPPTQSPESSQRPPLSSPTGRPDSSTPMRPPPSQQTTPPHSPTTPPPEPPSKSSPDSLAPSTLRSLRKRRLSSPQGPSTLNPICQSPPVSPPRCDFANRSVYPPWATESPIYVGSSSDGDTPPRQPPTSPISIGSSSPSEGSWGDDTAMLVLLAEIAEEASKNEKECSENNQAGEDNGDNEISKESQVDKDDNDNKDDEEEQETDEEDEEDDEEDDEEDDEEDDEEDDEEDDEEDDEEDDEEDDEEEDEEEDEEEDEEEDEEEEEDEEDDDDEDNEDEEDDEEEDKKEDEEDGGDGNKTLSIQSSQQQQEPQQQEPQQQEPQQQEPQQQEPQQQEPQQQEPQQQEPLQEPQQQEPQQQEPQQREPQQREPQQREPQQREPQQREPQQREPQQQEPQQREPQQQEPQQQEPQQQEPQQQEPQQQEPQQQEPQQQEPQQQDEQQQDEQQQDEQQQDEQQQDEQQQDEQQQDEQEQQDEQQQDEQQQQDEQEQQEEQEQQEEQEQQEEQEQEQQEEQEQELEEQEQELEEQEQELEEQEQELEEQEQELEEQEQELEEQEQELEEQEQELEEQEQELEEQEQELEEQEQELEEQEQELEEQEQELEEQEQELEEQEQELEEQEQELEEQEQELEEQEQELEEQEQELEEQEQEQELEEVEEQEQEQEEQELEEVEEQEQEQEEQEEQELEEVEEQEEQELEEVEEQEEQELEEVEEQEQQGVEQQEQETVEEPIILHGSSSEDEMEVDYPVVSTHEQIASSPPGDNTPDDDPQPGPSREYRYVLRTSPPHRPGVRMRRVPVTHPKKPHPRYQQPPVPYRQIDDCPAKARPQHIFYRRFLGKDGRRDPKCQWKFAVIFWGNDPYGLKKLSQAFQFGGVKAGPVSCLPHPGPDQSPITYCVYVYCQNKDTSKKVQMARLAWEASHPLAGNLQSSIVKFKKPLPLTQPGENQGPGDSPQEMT
The experiment in a line: inhibitors of C-LANA binding to LBS DNA, dose response, biochemical, fluorescence polarization, cherry-picked samples (AID 504725).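 Further: fluorescence polarization of a labeled DNA duplex reporting LANA DNA binding; potency is for inhibitors that block LANA binding to the DNA.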 Also noted: species or system Human gammaherpesvirus 8.

The target in experiment [2] is Keap1/Nrf2 (Homo sapiens, UniProt Q14145). Description: Keap1-Nrf2 protein-protein interaction inhibitors, dose response, biochemical, fluorescence polarization, cherry-picked samples (AID 588683).
Experiment [3] concerns the target T2, Endoribonuclease toxin MazF (Escherichia coli K-12, UniProt P0AE70).
T2 sequence (P0AE70 whole entry): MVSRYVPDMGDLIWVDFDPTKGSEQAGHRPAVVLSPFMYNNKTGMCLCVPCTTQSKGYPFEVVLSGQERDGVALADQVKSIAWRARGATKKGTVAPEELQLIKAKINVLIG
The experiment in a line: MazF toxin RNase activators, dose response, biochemical, fluorescence, single-stranded RNA substrate, uHTS hits (AID 588481). It counts as functional.

Experiment [4] deals with UDP-galactopyranose mutase (Mycobacterium tuberculosis, UniProt P9WIQ1). Description: Inhibitors of Mycobacterium tuberculosis UDP-galactopyranose mutase (UGM) enzyme Measured in Biochemical System Using Plate Reader - 2105-02_Inhibitor_Dose_CherryPick_Activity. [Related pubchem assays (depositor defined):AID504439].
Experiment [5] addresses T2, Endoribonuclease toxin MazF. Description: fluorescent RNA oligo signal without MazF, dose response, counter-screen for MazEF activator project, biochemical, fluorescence, single-stranded RNase substrate (AID 588502). It counts as functional.
Experiment [6] relates to Salmon testes DNA. The experiment in a line: DNA intercalators displacing acridine orange, dose response, artefact control for KSHV LANA DNA-binding inhibitor project, biochemical, fluorescence polarization, cherry-picked samples, set 2 (AID 504727). Also noted: species or system Salmonidae.
Experiment [7] deals with T3, Short transient receptor potential channel 4 (Mus musculus, UniProt Q9QUQ5).
T3 sequence (Q9QUQ5 whole entry): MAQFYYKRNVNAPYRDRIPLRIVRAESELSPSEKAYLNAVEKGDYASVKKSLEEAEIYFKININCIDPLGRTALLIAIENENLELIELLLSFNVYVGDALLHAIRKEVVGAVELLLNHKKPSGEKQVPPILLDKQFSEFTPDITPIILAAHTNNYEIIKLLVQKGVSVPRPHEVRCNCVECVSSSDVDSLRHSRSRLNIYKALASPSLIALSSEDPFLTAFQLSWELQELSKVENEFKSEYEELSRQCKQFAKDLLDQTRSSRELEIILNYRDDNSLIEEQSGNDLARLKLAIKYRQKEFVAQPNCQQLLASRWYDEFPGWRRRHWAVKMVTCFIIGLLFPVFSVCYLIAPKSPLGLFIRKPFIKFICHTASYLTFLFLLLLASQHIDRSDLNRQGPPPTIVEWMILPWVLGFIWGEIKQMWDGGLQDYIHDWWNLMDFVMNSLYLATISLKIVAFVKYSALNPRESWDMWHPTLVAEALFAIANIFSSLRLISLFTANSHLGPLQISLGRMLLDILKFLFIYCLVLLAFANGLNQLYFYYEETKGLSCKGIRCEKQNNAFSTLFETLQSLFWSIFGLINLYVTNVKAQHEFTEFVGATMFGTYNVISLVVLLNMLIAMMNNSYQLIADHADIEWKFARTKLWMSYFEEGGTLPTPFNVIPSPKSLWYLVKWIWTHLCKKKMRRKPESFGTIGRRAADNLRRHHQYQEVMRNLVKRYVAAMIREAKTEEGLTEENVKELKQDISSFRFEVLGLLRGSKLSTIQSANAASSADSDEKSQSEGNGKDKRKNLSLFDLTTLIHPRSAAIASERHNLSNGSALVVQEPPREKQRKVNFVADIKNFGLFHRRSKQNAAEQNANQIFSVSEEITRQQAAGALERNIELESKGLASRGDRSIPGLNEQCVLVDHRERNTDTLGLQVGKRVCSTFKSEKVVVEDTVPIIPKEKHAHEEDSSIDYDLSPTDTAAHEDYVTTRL
Description: TRPC4 positive allosteric modulators, dose response, cell-based, HEK293 TRPC4/mu-opioid, Fluo-4 calcium, EC20 DAMGO (AID 434941).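 Further: HEK293 cells coexpressing TRPC4 and mu opioid receptor stimulated by EC20 DAMGO.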 It counts as functional.

The target in experiment [8] is T4, Replicative DNA helicase DnaB (Mycobacterium tuberculosis, UniProt P9WMR3).
T4 sequence (P9WMR3 whole entry): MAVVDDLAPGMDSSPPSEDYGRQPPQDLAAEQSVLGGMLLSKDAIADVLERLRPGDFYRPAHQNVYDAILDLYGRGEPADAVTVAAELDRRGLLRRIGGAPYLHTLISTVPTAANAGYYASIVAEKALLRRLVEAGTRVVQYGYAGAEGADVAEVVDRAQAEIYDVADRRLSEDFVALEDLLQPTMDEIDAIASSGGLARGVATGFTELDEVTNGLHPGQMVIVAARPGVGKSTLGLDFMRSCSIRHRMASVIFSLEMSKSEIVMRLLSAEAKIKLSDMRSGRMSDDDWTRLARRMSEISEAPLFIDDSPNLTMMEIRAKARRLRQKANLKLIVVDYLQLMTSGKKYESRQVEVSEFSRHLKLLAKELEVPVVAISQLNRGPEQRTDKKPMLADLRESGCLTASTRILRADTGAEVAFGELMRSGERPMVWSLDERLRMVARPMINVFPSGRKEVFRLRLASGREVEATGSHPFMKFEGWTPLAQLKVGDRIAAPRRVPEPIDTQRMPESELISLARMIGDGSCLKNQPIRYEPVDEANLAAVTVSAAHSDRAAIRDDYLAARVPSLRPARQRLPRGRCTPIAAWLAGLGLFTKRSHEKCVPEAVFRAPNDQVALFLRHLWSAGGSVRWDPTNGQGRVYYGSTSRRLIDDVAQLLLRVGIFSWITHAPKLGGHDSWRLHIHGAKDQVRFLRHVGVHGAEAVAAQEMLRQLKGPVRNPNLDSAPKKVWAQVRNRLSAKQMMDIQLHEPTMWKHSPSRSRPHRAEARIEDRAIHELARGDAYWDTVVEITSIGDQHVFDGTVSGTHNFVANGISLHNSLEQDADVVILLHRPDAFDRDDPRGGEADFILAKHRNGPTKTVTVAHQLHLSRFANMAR
The experiment in a line: DnaB intein splicing inhibitors, dose response, biochemical, cell-free fluorescence (AID 449749). It counts as functional.

Experiment [9] has as its target T5, Protein RecA (Mycobacterium tuberculosis, UniProt P9WHJ3).
T5 sequence (P9WHJ3 whole entry): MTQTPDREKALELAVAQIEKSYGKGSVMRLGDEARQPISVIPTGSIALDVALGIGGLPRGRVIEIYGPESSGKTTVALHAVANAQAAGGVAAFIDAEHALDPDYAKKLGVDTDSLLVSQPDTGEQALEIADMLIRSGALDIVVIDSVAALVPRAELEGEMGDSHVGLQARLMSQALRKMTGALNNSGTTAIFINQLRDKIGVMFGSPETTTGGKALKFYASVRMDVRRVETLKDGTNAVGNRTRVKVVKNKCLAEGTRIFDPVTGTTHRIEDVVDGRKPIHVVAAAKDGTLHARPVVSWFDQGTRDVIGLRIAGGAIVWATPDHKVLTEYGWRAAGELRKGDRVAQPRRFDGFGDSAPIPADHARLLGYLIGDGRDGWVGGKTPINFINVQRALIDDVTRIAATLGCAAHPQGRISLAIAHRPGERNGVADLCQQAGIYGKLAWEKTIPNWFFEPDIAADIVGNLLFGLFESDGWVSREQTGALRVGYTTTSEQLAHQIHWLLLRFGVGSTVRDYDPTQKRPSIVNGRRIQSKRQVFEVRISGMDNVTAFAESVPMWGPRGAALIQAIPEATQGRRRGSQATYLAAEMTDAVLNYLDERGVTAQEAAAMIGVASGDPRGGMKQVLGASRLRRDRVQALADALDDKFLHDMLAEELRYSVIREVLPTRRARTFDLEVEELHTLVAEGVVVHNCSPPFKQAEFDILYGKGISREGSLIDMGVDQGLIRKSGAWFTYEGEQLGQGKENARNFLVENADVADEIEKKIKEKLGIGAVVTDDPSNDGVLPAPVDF
Description: Fluorescence Cell-Free Homogeneous Dose Retest to Identify Inhibitors of RecA-Intein Splicing Activity. [Related pubchem assays (depositor defined):AID2097, AID2223, AID489010, AID492950]. It counts as functional.

Experiment [10] concerns the target G-protein coupled receptor 55 (Homo sapiens, UniProt Q9Y2T6). Description: GPR55 agonists via beta-arrestin recruitment, primary screen, imaging, U2OS cells, beta-arrestin-GFP redistribution (AID 1961). It counts as functional.
Experiment [11] has as its target Phosphoethanolamine/phosphocholine phosphatase (Homo sapiens, UniProt Q8TCT1). Description: SAR assay for compounds that inhibit PHOSPHO1. [Related pubchem assays (depositor defined):AID1545, AID1565, AID1574].
Experiment [12] has as its target T6, Phosphomannomutase 2 (Homo sapiens, UniProt O15305).
T6 sequence (O15305 whole entry): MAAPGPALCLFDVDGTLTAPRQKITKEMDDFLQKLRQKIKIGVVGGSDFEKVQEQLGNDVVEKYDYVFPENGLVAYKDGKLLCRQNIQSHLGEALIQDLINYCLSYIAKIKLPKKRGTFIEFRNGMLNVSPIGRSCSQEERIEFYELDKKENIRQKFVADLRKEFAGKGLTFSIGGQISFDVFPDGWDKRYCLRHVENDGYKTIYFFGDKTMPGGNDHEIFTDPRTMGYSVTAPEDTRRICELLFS
The experiment in a line: Counter screen SAR assay for PMM2 inhibitors via a fluorescence intensity assay. [Related pubchem assays (depositor defined):AID1545, AID1574].

Sequence of Keap1/Nrf2 (Q16236 whole entry): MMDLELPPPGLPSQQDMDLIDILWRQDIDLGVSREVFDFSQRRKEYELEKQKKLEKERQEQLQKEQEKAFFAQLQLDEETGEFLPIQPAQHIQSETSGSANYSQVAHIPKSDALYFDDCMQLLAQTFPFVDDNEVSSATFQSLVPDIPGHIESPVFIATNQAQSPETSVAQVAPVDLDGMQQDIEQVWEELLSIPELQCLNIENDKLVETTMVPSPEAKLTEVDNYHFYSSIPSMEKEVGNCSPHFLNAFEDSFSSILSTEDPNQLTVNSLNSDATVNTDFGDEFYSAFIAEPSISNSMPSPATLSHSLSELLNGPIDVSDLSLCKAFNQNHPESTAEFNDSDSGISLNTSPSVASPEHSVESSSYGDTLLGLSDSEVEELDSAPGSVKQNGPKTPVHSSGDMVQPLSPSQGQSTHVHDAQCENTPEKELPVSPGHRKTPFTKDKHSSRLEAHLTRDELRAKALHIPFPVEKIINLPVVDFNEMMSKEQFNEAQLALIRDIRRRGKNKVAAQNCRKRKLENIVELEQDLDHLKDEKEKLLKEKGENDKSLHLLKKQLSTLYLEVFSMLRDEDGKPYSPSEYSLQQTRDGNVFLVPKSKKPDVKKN
Sequence of Keap1/Nrf2 (Q14145 whole entry): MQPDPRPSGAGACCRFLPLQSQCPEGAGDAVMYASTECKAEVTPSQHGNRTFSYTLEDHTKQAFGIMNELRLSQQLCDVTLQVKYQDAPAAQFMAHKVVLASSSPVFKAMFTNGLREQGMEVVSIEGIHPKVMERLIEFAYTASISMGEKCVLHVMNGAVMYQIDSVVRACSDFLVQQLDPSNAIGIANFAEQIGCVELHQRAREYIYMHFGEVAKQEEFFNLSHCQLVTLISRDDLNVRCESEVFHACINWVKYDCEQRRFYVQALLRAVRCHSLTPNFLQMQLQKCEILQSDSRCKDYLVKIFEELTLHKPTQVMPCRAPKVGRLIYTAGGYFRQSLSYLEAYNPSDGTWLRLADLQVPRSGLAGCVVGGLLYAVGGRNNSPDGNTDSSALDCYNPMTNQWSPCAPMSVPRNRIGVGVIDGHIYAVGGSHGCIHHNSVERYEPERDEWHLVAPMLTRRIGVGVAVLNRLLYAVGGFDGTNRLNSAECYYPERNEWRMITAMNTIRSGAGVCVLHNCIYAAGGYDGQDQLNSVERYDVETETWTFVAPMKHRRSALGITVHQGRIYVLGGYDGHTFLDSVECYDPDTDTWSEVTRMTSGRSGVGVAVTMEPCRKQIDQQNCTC
Sequence of G-protein coupled receptor 55 (Q9Y2T6 whole entry): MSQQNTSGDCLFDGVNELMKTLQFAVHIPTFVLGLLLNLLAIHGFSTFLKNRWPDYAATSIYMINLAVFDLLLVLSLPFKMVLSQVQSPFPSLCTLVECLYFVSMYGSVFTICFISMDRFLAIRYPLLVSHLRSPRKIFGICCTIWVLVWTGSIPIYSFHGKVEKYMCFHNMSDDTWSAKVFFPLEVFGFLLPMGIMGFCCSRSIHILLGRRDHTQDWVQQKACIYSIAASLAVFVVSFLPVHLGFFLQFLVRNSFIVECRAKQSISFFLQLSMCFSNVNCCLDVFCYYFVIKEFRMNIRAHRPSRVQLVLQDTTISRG
Sequence of Phosphoethanolamine/phosphocholine phosphatase (Q8TCT1 whole entry): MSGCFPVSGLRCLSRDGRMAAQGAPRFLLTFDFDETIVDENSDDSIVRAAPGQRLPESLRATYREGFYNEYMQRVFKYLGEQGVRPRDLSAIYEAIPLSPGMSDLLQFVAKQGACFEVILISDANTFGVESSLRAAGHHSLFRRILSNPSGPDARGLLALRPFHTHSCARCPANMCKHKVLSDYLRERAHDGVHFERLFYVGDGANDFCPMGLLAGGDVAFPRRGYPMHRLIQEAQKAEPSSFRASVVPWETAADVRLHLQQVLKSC
Sequence of UDP-galactopyranose mutase (P9WIQ1 whole entry): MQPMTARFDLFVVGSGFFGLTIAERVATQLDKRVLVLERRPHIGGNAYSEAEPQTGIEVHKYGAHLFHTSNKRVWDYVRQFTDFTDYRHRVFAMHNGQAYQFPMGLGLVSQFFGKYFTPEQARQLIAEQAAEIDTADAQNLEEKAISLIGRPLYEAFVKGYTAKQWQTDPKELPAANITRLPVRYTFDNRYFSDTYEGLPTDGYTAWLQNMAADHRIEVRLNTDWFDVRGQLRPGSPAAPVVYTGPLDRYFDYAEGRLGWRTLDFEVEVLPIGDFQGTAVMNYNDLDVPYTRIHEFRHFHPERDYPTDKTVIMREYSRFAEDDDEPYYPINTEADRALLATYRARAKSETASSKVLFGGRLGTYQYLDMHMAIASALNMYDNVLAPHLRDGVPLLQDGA

Turning to `Cc1cc2nc3c(O)nc(S)nc3nc2cc1NC(=O)C(F)(F)F`, the AC50 in experiment [1] is 40.6 µM (active); in experiment [2], > 52 µM (inactive); in [4], 19.6 µM (active); in [6] it was 86.4 µM (active). Further, the EC50 in [3] and in [5] was > 99 µM (inactive) throughout.
`O=C(c1cccc([N+](=O)[O-])c1)N1CCCC(C(=O)N2CCCCCC2)C1` (configuration not stated): the concentration giving a half-maximal response (EC50) in experiment [7] is 0.33 µM (active).
`O=C(c1ccncc1)N(c1ccc2oc3c(c2c1)CCCC3)S(=O)(=O)c1ccc(F)cc1`: the AC50 in experiment [8] was 2.09 µM (active). Besides, the EC50 in experiment [9] is 6.22 µM (active); in experiment [10], > 32 µM (inactive).
Consider `CN(C)c1cccc(-n2sc3ccccc3c2=O)c1`, for which the IC50 was 52.9 µM (inactive) in experiment [11] and 85.2 µM (active) in experiment [12].
